Molecules are shown by their SMILES. Activity calls are given as the source filed them. No cut-off for these calls is given here. Where only a bound is given, the exact number is not on record here.

Sequence of Tumour suppressor p53/oncoprotein Mdm2 (P04637 whole entry): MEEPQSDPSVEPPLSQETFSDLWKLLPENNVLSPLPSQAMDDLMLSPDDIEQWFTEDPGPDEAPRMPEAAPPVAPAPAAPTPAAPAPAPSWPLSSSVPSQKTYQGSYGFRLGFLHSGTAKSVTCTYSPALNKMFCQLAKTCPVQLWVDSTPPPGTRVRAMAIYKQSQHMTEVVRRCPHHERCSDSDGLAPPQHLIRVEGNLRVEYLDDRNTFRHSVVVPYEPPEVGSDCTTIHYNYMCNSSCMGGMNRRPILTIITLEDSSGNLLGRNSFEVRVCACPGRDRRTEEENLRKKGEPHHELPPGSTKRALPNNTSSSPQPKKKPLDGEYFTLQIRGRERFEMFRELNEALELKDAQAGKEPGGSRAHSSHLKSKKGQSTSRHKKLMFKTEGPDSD
Sequence of Tumour suppressor p53/oncoprotein Mdm2 (Q00987 whole entry): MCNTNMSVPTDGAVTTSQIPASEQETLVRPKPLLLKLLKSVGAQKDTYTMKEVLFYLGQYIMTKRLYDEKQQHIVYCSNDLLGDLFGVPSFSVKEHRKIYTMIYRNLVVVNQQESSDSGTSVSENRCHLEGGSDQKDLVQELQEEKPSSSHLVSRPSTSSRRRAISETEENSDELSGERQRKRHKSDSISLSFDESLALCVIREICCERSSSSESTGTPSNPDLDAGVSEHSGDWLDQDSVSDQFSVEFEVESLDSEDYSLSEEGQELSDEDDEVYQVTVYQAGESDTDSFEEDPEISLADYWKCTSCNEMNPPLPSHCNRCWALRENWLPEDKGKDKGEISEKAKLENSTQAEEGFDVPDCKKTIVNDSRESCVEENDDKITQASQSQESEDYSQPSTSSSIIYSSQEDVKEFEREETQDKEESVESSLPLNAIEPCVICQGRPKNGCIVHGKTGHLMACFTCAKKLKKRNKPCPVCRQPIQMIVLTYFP

In one experiment the test system is HCT-116. As to the kind of experiment: Induction of p21 mRNA in human HCT116 cells by RT-PCR. Type of experiment: functional, cell-based.
With `Cc1ccc2c(c1)C1=C(C(c3ccc(Br)cc3)O2)C(c2ccc(Br)cc2)n2ncnc2N1C` (single isomer, unassigned), the Activity entry was “Dose-dependent effect”.

`COc1ccc(C2=N[C@@H](c3ccc(Cl)cc3)[C@@H](c3ccc(Cl)cc3)N2C(=O)N2CCNC(=O)C2)c(OC(C)C)c1`: the Activity result was “Dose-dependent effect”.

The next experiment addresses Tumour suppressor p53/oncoprotein Mdm2 (Homo sapiens, UniProt Q00987). The experiment can be described thus: Inhibition of human MDM2/P53 interaction by HTRF assay. Type of experiment: protein assay. Background: In TR-FRET formats the signal depends on donor and acceptor labels being close together.
`CN1C2=C(C(c3ccc(F)cc3)Oc3ccccc32)C(c2ccc(F)cc2)n2ncnc21` (racemic) displayed an IC50 of 14.8 µM.

The molecule `COc1c(C)ccc2c1C1=C(C(c3ccc(Br)cc3)O2)C(c2ccc(Br)cc2)n2ncnc2N1C` (racemic) showed an IC50 of 3.94 µM.

`CN1C2=C(C(c3ccc(Br)cc3)Oc3cc(F)ccc32)C(c2ccc(Br)cc2)n2ncnc21` (racemic) showed a half-inhibitory concentration (IC50) of 0.99 µM.

For the molecule `CN1C2=C(C(c3ccc(Cl)cc3)Oc3ccccc32)C(c2ccc(Cl)cc2)n2ncnc21` (racemic), the IC50 was 1.21 µM.

For `CN1C2=C(C(c3ccc(Br)cc3)Oc3cccc(F)c32)C(c2ccc(Br)cc2)n2ncnc21` (racemic), the IC50 worked out at 1.72 µM. This IC50 and that of the molecule before are within 1.5-fold of each other.

The molecule `CN1C2=C(C(c3ccc(C#N)cc3)Oc3ccccc32)C(c2ccc(Br)cc2)n2ncnc21` (racemic) had an IC50 of 2.08 µM.

Molecule `CCOc1cccc2c1C1=C(C(c3ccc(Br)cc3)O2)C(c2ccc(Br)cc2)n2ncnc2N1C` (racemic) came in with an IC50 of 0.91 µM.

Molecule `Cc1cc2c(cc1F)OC(c1ccc(Br)cc1)C1=C2N(C)c2ncnn2C1c1ccc(Br)cc1` (racemic) displayed an IC50 of 0.48 µM.

Molecule `CCc1ccc2c(c1)C1=C(C(c3ccc(Br)cc3)O2)C(c2ccc(Br)cc2)n2ncnc2N1C` (racemic) came in with a 50% inhibitory concentration (IC50) of 3.2 µM. Compared with the last molecule, the IC50 is about 6.7-fold higher.

On to `CN1C2=C(C(c3ccc(Br)cc3)Oc3ccc(C#N)cc32)C(c2ccc(Br)cc2)n2ncnc21` (racemic), for which the IC50 was found to be 3.06 µM. The IC50 values of the last two molecules are within 1.5-fold of each other.

As for `CC#Cc1ccc(C2Oc3ccccc3C3=C2C(c2ccc(Br)cc2)n2ncnc2N3C)cc1` (racemic), the IC50 came out at 9.07 µM.

`CN1C2=C(C(c3ccc(Br)cc3)Oc3c(Cl)cccc32)C(c2ccc(Br)cc2)n2ncnc21` (racemic) gave an IC50 of 3.5 µM.

Molecule `CN1C2=C(C(c3ccc(Cl)cc3)Oc3ccccc32)C(c2ccc(Br)cc2)n2ncnc21` (racemic) displayed an IC50 of 0.89 µM.

The molecule `CN1C2=C(C(c3ccc(Br)cc3)Oc3ccccc32)C(c2ccc(C#N)cc2)n2ncnc21` (racemic) displayed an IC50 of 5.84 µM.

On to `CN1C2=C(C(c3ccc(Br)cc3)Oc3ccc(F)cc32)C(c2ccc(Br)cc2)n2ncnc21` (racemic), for which the midpoint of inhibition, the IC50, lay at 1.73 µM. This IC50 is about 3.4-fold lower than that of the molecule before.

`CN1C2=C(C(c3ccc(Br)cc3)Oc3ccc(Cl)cc32)C(c2ccc(Br)cc2)n2ncnc21` (racemic) gave an IC50 of 1.4 µM.

Take `CN1C2=C(C(c3ccc(Br)cc3)Oc3cc(Cl)ccc32)C(c2ccc(Br)cc2)n2ncnc21` (racemic): the IC50 came out at 15.1 µM.

For `CN1C2=C(C(c3ccc(Br)cc3)Oc3ccccc32)C(c2ccc(F)cc2)n2ncnc21` (racemic), the IC50 amounted to 1.88 µM. Against the preceding molecule, the IC50 is about 8-fold lower.

The molecule `Cc1ccc2c(c1)C1=C(C(c3ccc(Br)cc3)O2)C(c2ccc(Br)cc2)n2ncnc2N1C` (racemic) yielded an IC50 of 0.44 µM. This IC50 lies about 4.3-fold lower than the previous one.

Molecule `CCc1ccc(C2Oc3ccccc3C3=C2C(c2ccc(Br)cc2)n2ncnc2N3C)cc1` (racemic) registered an IC50 of over 100 µM.

`C#Cc1ccc(C2Oc3ccccc3C3=C2C(c2ccc(Br)cc2)n2ncnc2N3C)cc1` (racemic) gave an IC50 of 2.47 µM.

Regarding `CN1C2=C(C(c3ccc(F)cc3)Oc3ccccc32)C(c2ccc(Br)cc2)n2ncnc21` (racemic), half-maximal inhibition (IC50) required 6.57 µM.

As for `Cc1ccc(C2Oc3ccccc3C3=C2C(c2ccc(Br)cc2)n2ncnc2N3C)cc1` (racemic), inhibition was half-maximal at 4.63 µM (IC50). This IC50 and that of the molecule before are within 1.5-fold of each other.

The molecule `Cc1ccc(C2C3=C(c4ccccc4OC3c3ccc(Br)cc3)N(C)c3ncnn32)cc1` (racemic) returned an IC50 of 4.74 µM.

Molecule `CN1C2=C(C(c3ccc(Br)cc3)Oc3c(Cl)cc(Cl)cc32)C(c2ccc(Br)cc2)n2ncnc21` (racemic) yielded an IC50 of over 100 µM.

A further experiment has as its system HCT-116. As to the kind of experiment: Inhibition of human p21 deficient HCT116 cell proliferation after 16 hrs by BrdU assay. Type of experiment: functional, cell-based. For orientation: Incorporation of labelled thymidine or its analogues reports DNA synthesis.
`Cc1ccc2c(c1)C1=C(C(c3ccc(Br)cc3)O2)C(c2ccc(Br)cc2)n2ncnc2N1C` (single isomer, unassigned): the outcome was inactive.

In the case of `COc1ccc(C2=N[C@@H](c3ccc(Cl)cc3)[C@@H](c3ccc(Cl)cc3)N2C(=O)N2CCNC(=O)C2)c(OC(C)C)c1`, the result was inactive.

In the next experiment the test system is HCT-116. The experiment can be described thus: Inhibition of human HCT116 cell proliferation after 16 hrs by BrdU assay. Type of experiment: functional, cell-based.
For the molecule `Cc1ccc2c(c1)C1=C(C(c3ccc(Br)cc3)O2)C(c2ccc(Br)cc2)n2ncnc2N1C` (single isomer, unassigned), the outcome was Active.

As to `COc1ccc(C2=N[C@@H](c3ccc(Cl)cc3)[C@@H](c3ccc(Cl)cc3)N2C(=O)N2CCNC(=O)C2)c(OC(C)C)c1`, the result was Active.

A further experiment relates to HCT-116. As to the kind of experiment: Inhibition of human p53 deficient HCT116 cell proliferation after 16 hrs by BrdU assay. Type of experiment: functional, cell-based.
Turning to `Cc1ccc2c(c1)C1=C(C(c3ccc(Br)cc3)O2)C(c2ccc(Br)cc2)n2ncnc2N1C` (single isomer, unassigned), the result was inactive.

For the molecule `COc1ccc(C2=N[C@@H](c3ccc(Cl)cc3)[C@@H](c3ccc(Cl)cc3)N2C(=O)N2CCNC(=O)C2)c(OC(C)C)c1`, the result was inactive.

The subject of another experiment is SJSA-1. As to the kind of experiment: Induction of apoptosis in human SJSA1 cells assessed as caspase 3/7 activity after 48 hrs. Type of experiment: functional, cell-based.
For `Cc1ccc2c(c1)C1=C(C(c3ccc(Br)cc3)O2)C(c2ccc(Br)cc2)n2ncnc2N1C` (single isomer, unassigned), the Activity result was “Dose-dependent effect”.

`COc1ccc(C2=N[C@@H](c3ccc(Cl)cc3)[C@@H](c3ccc(Cl)cc3)N2C(=O)N2CCNC(=O)C2)c(OC(C)C)c1`: the Activity entry is “Dose-dependent effect”.

As usually defined, the IC50 is the concentration that gives 50% inhibition.

Values taken from ChEMBL document CHEMBL1154659, “Discovery and optimization of chromenotriazolopyrimidines as potent inhibitors of the mouse double minute 2-tumor protein 53 protein-protein interaction” (J Med Chem, 2009).
